According to ChEMBL document CHEMBL1201861, “Genomics of Drug Sensitity in Cancer screening data, Wellcome Trust Sanger Institute”:
pIC50: −log10 of the molar value.

Assays:
MEL-JUSO = assay: cells; format: functional, cell-based; settings: Homo sapiens;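 also: growth inhibition of human MEL-JUSO cells, read out with a cell viability assay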
Description: SANGER: Inhibition of human MEL-JUSO cell growth in a cell viability assay.

MEL-HO = assay: cells; format: functional, cell-based; settings: Homo sapiens
Description: SANGER: Inhibition of human MEL-HO cell growth in a cell viability assay.

KP-4 = assay: cells; format: functional, cell-based; settings: Homo sapiens;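 also: human KP-4 cells, with growth inhibition read out through a cell viability assay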
Description: SANGER: Inhibition of human KP-4 cell growth in a cell viability assay.

LoVo = assay: cells; format: functional, cell-based; settings: Homo sapiens;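 also: growth inhibition of human LoVo cells, read out with a cell viability assay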
Description: SANGER: Inhibition of human LoVo cell growth in a cell viability assay.

BT-20 = assay: cells; format: functional, cell-based; settings: Homo sapiens;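 also: cell viability assay measuring suppression of growth in human BT-20 cells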
Description: SANGER: Inhibition of human BT-20 cell growth in a cell viability assay.

MONO-MAC-6 = assay: cells; format: functional, cell-based, Homo sapiens; settings: Homo sapiens, MONO-MAC-6;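 also: cell viability assay measuring growth inhibition of human MONO-MAC-6 cells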
Description: SANGER: Inhibition of human MONO-MAC-6 cell growth in a cell viability assay.

Daudi = assay: cells; format: functional, cell-based, Homo sapiens; settings: Homo sapiens, Daudi;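 also: growth inhibition of Daudi cells, read out by a viability assay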
Description: SANGER: Inhibition of human Daudi cell growth in a cell viability assay.

KMS-12-PE = assay: cells; format: functional, cell-based, Homo sapiens; settings: Homo sapiens, KMS-12-PE;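 also: growth inhibition of human KMS-12-PE cells, measured with a cell viability assay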
Description: SANGER: Inhibition of human KMS-12-PE cell growth in a cell viability assay.

NALM-6 = assay: cells; format: functional, cell-based, Homo sapiens; settings: Homo sapiens, NALM-6;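 also: growth inhibition of NALM-6 cells, read out with a cell viability assay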
Description: SANGER: Inhibition of human NALM-6 cell growth in a cell viability assay.

A673 = assay: cells; format: functional, cell-based; settings: Homo sapiens;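 also: growth inhibition of human A673 cells, read out through a cell viability assay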
Description: SANGER: Inhibition of human A673 cell growth in a cell viability assay.

MC-CAR = assay: cells; format: functional, cell-based, Homo sapiens; settings: Homo sapiens, MC-CAR;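 also: growth inhibition of the human MC-CAR cell line, read out by a cell viability assay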
Description: SANGER: Inhibition of human MC-CAR cell growth in a cell viability assay.

NCI-H1755 = assay: cells; format: functional, cell-based; settings: Homo sapiens;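 also: cell viability readout used to measure growth inhibition of NCI-H1755 cells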
Description: SANGER: Inhibition of human NCI-H1755 cell growth in a cell viability assay.

HCC1419 = assay: cells; format: functional, cell-based; settings: Homo sapiens;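 also: growth inhibition of human HCC1419 cells, read out as cell viability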
Description: SANGER: Inhibition of human HCC1419 cell growth in a cell viability assay.

NCI-H1882 = assay: cells; format: functional, cell-based, Homo sapiens; settings: Homo sapiens, NCI-H1882;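 also: growth inhibition of the cell line, determined with a viability assay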
Description: SANGER: Inhibition of human NCI-H1882 cell growth in a cell viability assay.

EFM-19 = assay: cells; format: functional, cell-based; settings: Homo sapiens;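 also: growth inhibition of human EFM-19 cells, measured in a cell viability assay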
Description: SANGER: Inhibition of human EFM-19 cell growth in a cell viability assay.

Raji = assay: cells; format: functional, cell-based, Homo sapiens; settings: Homo sapiens, Raji;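 also: cell viability assay measuring inhibition of Raji cell growth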
Description: SANGER: Inhibition of human Raji cell growth in a cell viability assay.

SK-MES-1 = assay: cells; format: functional, cell-based; settings: Homo sapiens;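 also: growth inhibition of human SK-MES-1 cells, read out with a cell viability assay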
Description: SANGER: Inhibition of human SK-MES-1 cell growth in a cell viability assay.

UMUC3 = assay: cells; format: functional, cell-based; settings: Homo sapiens;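 also: growth inhibition of human UM-UC-3 cells, read out with a cell viability assay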
Description: SANGER: Inhibition of human UM-UC-3 cell growth in a cell viability assay.

CAKI-1 = assay: cells; format: functional, cell-based; settings: Homo sapiens;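 also: growth inhibition of CAKI-1 cells, measured by a cell viability assay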
Description: SANGER: Inhibition of human CAKI-1 cell growth in a cell viability assay.

BXPC-3 = assay: cells; format: functional, cell-based; settings: Homo sapiens;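 also: growth inhibition of human BxPC-3 cells, read out by a cell viability assay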
Description: SANGER: Inhibition of human BxPC-3 cell growth in a cell viability assay.

P12-Ichikawa = assay: cells; format: functional, cell-based; settings: Homo sapiens
ABC-1 = assay: cells; format: functional, cell-based; settings: Homo sapiens;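 also: growth inhibition of human ABC-1 cells, read out by a cell viability assay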
Description: SANGER: Inhibition of human ABC-1 cell growth in a cell viability assay.

NCI-H64 = assay: cells; format: functional, cell-based, Homo sapiens; settings: Homo sapiens, NCI-H64;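 also: growth inhibition of NCI-H64 cells, read out with a cell viability assay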
Description: SANGER: Inhibition of human NCI-H64 cell growth in a cell viability assay.

D-542MG = assay: cells; format: functional, cell-based; settings: Homo sapiens
Description: SANGER: Inhibition of human D-542MG cell growth in a cell viability assay.

NCI-H2087 = assay: cells; format: functional, cell-based; settings: Homo sapiens;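 also: growth inhibition determined with a cell viability readout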
Description: SANGER: Inhibition of human NCI-H2087 cell growth in a cell viability assay.

U-251 = assay: cells; format: functional, cell-based; settings: Homo sapiens;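 also: growth inhibition of human U-251 cells, read out through a cell viability assay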
Description: SANGER: Inhibition of human U251 cell growth in a cell viability assay.

NCI-H524 = assay: cells; format: functional, cell-based, Homo sapiens; settings: Homo sapiens, NCI-H524;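 also: growth inhibition of human NCI-H524 cells, read out through a cell viability assay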
Description: SANGER: Inhibition of human NCI-H524 cell growth in a cell viability assay.

SNU-387 = assay: cells; format: functional, cell-based; settings: Homo sapiens
Description: SANGER: Inhibition of human SNU-387 cell growth in a cell viability assay.

GDM-1 = assay: cells; format: functional, cell-based, Homo sapiens; settings: Homo sapiens, GDM-1; read-out: IC50;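 also: cell viability readout used to measure growth inhibition of human GDM-1 cells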
Description: SANGER: Inhibition of human GDM-1 cell growth in a cell viability assay.

HTC-C3 = assay: cells; format: functional, cell-based; settings: Homo sapiens;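 also: inhibition of cell growth, read out with a cell viability assay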
Description: SANGER: Inhibition of human HTC-C3 cell growth in a cell viability assay.

CESS = assay: SANGER: Inhibition of human CESS cell growth in a cell viability assay.; format: functional, cell-based; settings: Homo sapiens, CESS
NCI-H2228 = assay: cells; format: functional, cell-based; settings: Homo sapiens;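 also: growth inhibition of human NCI-H2228 cells, read out by a cell viability assay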
Description: SANGER: Inhibition of human NCI-H2228 cell growth in a cell viability assay.

UMC-11 = assay: cells; format: functional, cell-based; settings: Homo sapiens;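 also: growth inhibition of UMC-11 cells, read out with a cell viability assay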
Description: SANGER: Inhibition of human UMC-11 cell growth in a cell viability assay.

NCI-H2342 = assay: cells; format: functional, cell-based; settings: Homo sapiens;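 also: growth inhibition of the cancer cell line, determined with a cell viability assay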
Description: SANGER: Inhibition of human NCI-H2342 cell growth in a cell viability assay.

SW13 = assay: cells; format: functional, cell-based; settings: Homo sapiens;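 also: IC50 is inhibition of SW13 cell growth, read out with a cell viability assay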
Description: SANGER: Inhibition of human SW13 cell growth in a cell viability assay.

DMS-153 = assay: cells; format: functional, cell-based, Homo sapiens; settings: Homo sapiens, DMS-153
Description: SANGER: Inhibition of human DMS-153 cell growth in a cell viability assay.

PC-3 = assay: cells; format: functional, cell-based; settings: Homo sapiens
Description: SANGER: Inhibition of human PC-3 cell growth in a cell viability assay.

CAL-120 = assay: cells; format: functional, cell-based; settings: Homo sapiens;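 also: cell growth inhibition, read out as cell viability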
Description: SANGER: Inhibition of human CAL-120 cell growth in a cell viability assay.

SK-LU-1 = assay: cells; format: functional, cell-based; settings: Homo sapiens;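 also: cell viability assay measuring growth inhibition of human SK-LU-1 cells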
Description: SANGER: Inhibition of human SK-LU-1 cell growth in a cell viability assay.

NB1 = assay: cells; format: functional, cell-based, Homo sapiens; settings: Homo sapiens, NB1;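 also: reduction of NB1 cell proliferation, read out with a viability assay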
Description: SANGER: Inhibition of human NB1 cell growth in a cell viability assay.

NCI-H889 = assay: cells; format: functional, cell-based, Homo sapiens; settings: Homo sapiens, NCI-H889;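 also: cell growth inhibition of the cell line, read out with a viability assay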
Description: SANGER: Inhibition of human NCI-H889 cell growth in a cell viability assay.

KYSE-180 = assay: cells; format: functional, cell-based; settings: Homo sapiens;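 also: growth inhibition of KYSE-180 cells, read out with a cell viability assay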
Description: SANGER: Inhibition of human KYSE-180 cell growth in a cell viability assay.

DG-75 = assay: cells; format: functional, cell-based, Homo sapiens; settings: Homo sapiens, DG-75;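 also: growth inhibition of DG-75 cells, read out with a cell viability assay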
Description: SANGER: Inhibition of human DG-75 cell growth in a cell viability assay.

MCF7 = assay: cells; format: functional, cell-based; settings: Homo sapiens;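 also: growth inhibition of human MCF7 cells, read out with a cell viability assay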
Description: SANGER: Inhibition of human MCF7 cell growth in a cell viability assay.

EHEB = assay: cells; format: functional, cell-based; settings: Homo sapiens;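 also: growth inhibition of human EHEB cells, read out with a cell viability assay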
Description: SANGER: Inhibition of human EHEB cell growth in a cell viability assay.

SK-OV-3 = assay: cells; format: functional, cell-based; settings: Homo sapiens;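 also: growth inhibition of SK-OV-3 human cells, read out with a cell viability assay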
Description: SANGER: Inhibition of human SK-OV-3 cell growth in a cell viability assay.

LCLC-97TM1 = assay: cells; format: functional, cell-based; settings: Homo sapiens;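 also: cell viability assay measuring growth inhibition of human LCLC-97TM1 cells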
Description: SANGER: Inhibition of human LCLC-97TM1 cell growth in a cell viability assay.

GCT = assay: cells; format: functional, cell-based; settings: Homo sapiens;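 also: GCT cell line proliferation inhibition, read out with a cell viability assay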
Description: SANGER: Inhibition of human GCT cell growth in a cell viability assay.

DoTc2-4510 = assay: cells; format: functional, cell-based; settings: Homo sapiens
YAPC = assay: cells; format: functional, cell-based; settings: Homo sapiens;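 also: growth inhibition of YAPC cells, measured with a cell viability assay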
Description: SANGER: Inhibition of human YAPC cell growth in a cell viability assay.

KYSE-70 cell line = assay: cells; format: functional, cell-based; settings: Homo sapiens;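 also: cell viability assay read-out, with IC50 expressing suppression of KYSE-70 cell growth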
Description: SANGER: Inhibition of human KYSE-70 cell growth in a cell viability assay.

KYSE-410 = assay: cells; format: functional, cell-based; settings: Homo sapiens;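 also: growth inhibition of KYSE-410 cells, measured through a cell viability readout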
Description: SANGER: Inhibition of human KYSE-410 cell growth in a cell viability assay.

A-427 = assay: cells; format: functional, cell-based; settings: Homo sapiens;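 also: growth inhibition of human A-427 cells, read out by a cell viability assay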
Description: SANGER: Inhibition of human A427 cell growth in a cell viability assay.

HT-1376 = assay: cells; format: functional, cell-based; settings: Homo sapiens
Description: SANGER: Inhibition of human HT-1376 cell growth in a cell viability assay.

LCLC-103H cell line = assay: cells; format: functional, cell-based; settings: Homo sapiens
Description: SANGER: Inhibition of human LCLC-103H cell growth in a cell viability assay.

NCI-H1793 = assay: cells; format: functional, cell-based; settings: Homo sapiens;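 also: cell growth inhibition, read out by a cell viability assay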
Description: SANGER: Inhibition of human NCI-H1793 cell growth in a cell viability assay.

OVCAR-3 = assay: cells; format: functional, cell-based; settings: Homo sapiens;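 also: growth inhibition of human OVCAR-3 cells, determined by a cell viability assay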
Description: SANGER: Inhibition of human OVCAR-3 cell growth in a cell viability assay.

HuCCT-1 = assay: cells; format: functional, cell-based, HuCCT1; settings: Homo sapiens;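 also: growth inhibition of HuCCT-1 cells, read out by a cell viability assay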
Description: SANGER: Inhibition of human HuCCT1 cell growth in a cell viability assay.

TE-441-T = assay: cells; format: functional, cell-based, Homo sapiens; settings: Homo sapiens, TE-441-T
Description: SANGER: Inhibition of human TE-441-T cell growth in a cell viability assay.

`O=S(=O)(O)c1ccc2cc(/N=N/c3cc(S(=O)(=O)O)c4cccnc4c3O)ccc2c1` gave a pIC50 (MEL-JUSO) of under 4.80, a pIC50 (MEL-HO) of under 4.80 and a pIC50 (KP-4) of under 4.80. For the same compound, the pIC50 (LoVo) was under 4.80, the pIC50 (BT-20) was under 4.80 and the pIC50 (MONO-MAC-6) was under 4.80. It also gave a pIC50 (Daudi) of under 4.80, a pIC50 (KMS-12-PE) of under 4.80 and a pIC50 (NALM-6) of under 4.80. It also gave a pIC50 (A673) of under 4.80, a pIC50 (MC-CAR) of under 4.80 and a pIC50 (NCI-H1755) of under 4.80. It also gave a pIC50 (HCC1419) of under 4.80, a pIC50 (NCI-H1882) of under 4.80 and a pIC50 (EFM-19) of under 4.80. It also gave a pIC50 (Raji) of under 4.80, a pIC50 (SK-MES-1) of under 4.80 and a pIC50 (UMUC3) of under 4.80. For the same compound, the pIC50 (CAKI-1) was under 4.80, the pIC50 (BXPC-3) was under 4.80 and the pIC50 (P12-Ichikawa) was under 4.80. It also gave a pIC50 (ABC-1) of under 4.80, a pIC50 (NCI-H64) of under 4.80 and a pIC50 (D-542MG) of under 4.80. It also gave a pIC50 (NCI-H2087) of under 4.80, a pIC50 (U-251) of under 4.80 and a pIC50 (NCI-H524) of under 4.80. For the same compound, the pIC50 (SNU-387) was under 4.80, the pIC50 (GDM-1) was under 4.80 and the pIC50 (HTC-C3) was under 4.80. For the same compound, the pIC50 (CESS) was under 4.80, the pIC50 (NCI-H2228) was under 4.80 and the pIC50 (UMC-11) was under 4.80. For the same compound, the pIC50 (NCI-H2342) was under 4.80, the pIC50 (SW13) was under 4.80 and the pIC50 (DMS-153) was under 4.80. It also gave a pIC50 (PC-3) of under 4.80, a pIC50 (CAL-120) of under 4.80 and a pIC50 (SK-LU-1) of under 4.80. The pIC50 (NB1) was under 4.80, the pIC50 (NCI-H889) was under 4.80 and the pIC50 (KYSE-180) was under 4.80. The pIC50 (DG-75) was under 4.80, the pIC50 (MCF7) was under 4.80 and the pIC50 (EHEB) was under 4.80. It also gave a pIC50 (SK-OV-3) of under 4.80, a pIC50 (LCLC-97TM1) of under 4.80 and a pIC50 (GCT) of under 4.80. For the same compound, the pIC50 (DoTc2-4510) was under 4.80, the pIC50 (YAPC) was under 4.80 and the pIC50 (KYSE-70 cell line) was under 4.80. The pIC50 (KYSE-410) was under 4.80, the pIC50 (A-427) was under 4.80 and the pIC50 (HT-1376) was under 4.80. For the same compound, the pIC50 (LCLC-103H cell line) was under 4.80, the pIC50 (NCI-H1793) was under 4.80 and the pIC50 (OVCAR-3) was under 4.80. For the same compound, the pIC50 (HuCCT-1) was under 4.80 and the pIC50 (TE-441-T) was under 4.80.
`Cc1ccc(C(=O)Nc2ccc(CN3CCN(C)CC3)c(C(F)(F)F)c2)cc1C#Cc1cnc2cccnn12` [PONATINIB] showed a pIC50 (MEL-JUSO) of under 6.29, a pIC50 (MEL-HO) of under 6.29 and a pIC50 (KP-4) of under 6.29. It also gave a pIC50 (LoVo) of under 6.29, a pIC50 (BT-20) of under 6.29 and a pIC50 (MONO-MAC-6) of 8.08. It also gave a pIC50 (Daudi) of 7.60, a pIC50 (KMS-12-PE) of under 6.29 and a pIC50 (NALM-6) of 6.59. It also gave a pIC50 (A673) of under 6.29, a pIC50 (MC-CAR) of under 6.29 and a pIC50 (NCI-H1755) of under 6.29. It also gave a pIC50 (HCC1419) of under 6.29, a pIC50 (NCI-H1882) of under 6.29 and a pIC50 (EFM-19) of under 6.29. It also gave a pIC50 (Raji) of under 6.29, a pIC50 (SK-MES-1) of under 6.29 and a pIC50 (UMUC3) of under 6.29. The pIC50 (CAKI-1) was 6.66, the pIC50 (BXPC-3) was 6.46 and the pIC50 (P12-Ichikawa) was under 6.29. For the same compound, the pIC50 (ABC-1) was under 6.29, the pIC50 (NCI-H64) was under 6.29 and the pIC50 (D-542MG) was under 6.29. For the same compound, the pIC50 (NCI-H2087) was 6.69, the pIC50 (U-251) was under 6.29 and the pIC50 (NCI-H524) was under 6.29. The pIC50 (SNU-387) was under 6.29, the pIC50 (GDM-1) was 7.74 and the pIC50 (HTC-C3) was under 6.29. For the same compound, the pIC50 (CESS) was under 6.29, the pIC50 (NCI-H2228) was under 6.29 and the pIC50 (UMC-11) was under 6.29. It also gave a pIC50 (NCI-H2342) of 6.73, a pIC50 (SW13) of under 6.29 and a pIC50 (DMS-153) of under 6.29. It also gave a pIC50 (PC-3) of under 6.29, a pIC50 (CAL-120) of 6.32 and a pIC50 (SK-LU-1) of 6.50. For the same compound, the pIC50 (NB1) was under 6.29, the pIC50 (NCI-H889) was under 6.29 and the pIC50 (KYSE-180) was 6.57. It also gave a pIC50 (DG-75) of under 6.29, a pIC50 (MCF7) of under 6.29 and a pIC50 (EHEB) of under 6.29. It also gave a pIC50 (SK-OV-3) of under 6.29, a pIC50 (LCLC-97TM1) of 6.34 and a pIC50 (GCT) of under 6.29. It also gave a pIC50 (DoTc2-4510) of under 6.29, a pIC50 (YAPC) of under 6.29 and a pIC50 (KYSE-70 cell line) of under 6.29. It also gave a pIC50 (KYSE-410) of under 6.29, a pIC50 (A-427) of 6.56 and a pIC50 (HT-1376) of under 6.29. For the same compound, the pIC50 (LCLC-103H cell line) was under 6.29, the pIC50 (NCI-H1793) was under 6.29 and the pIC50 (OVCAR-3) was under 6.29. It also gave a pIC50 (HuCCT-1) of under 6.29 and a pIC50 (TE-441-T) of under 6.29.
